This is an account of results in ChEMBL document CHEMBL1155275, “Synthesis and characterization of 6-deoxy-6-fluoro-D-fructose as a potential compound for imaging breast cancer with PET” (Bioorg Med Chem, 2009).

Format in all cases: cell-based
The target in assay [1] is T1, Solute carrier family 2, facilitated glucose transporter member 2 (Homo sapiens, UniProt P11168).
T1 sequence (P11168 whole entry): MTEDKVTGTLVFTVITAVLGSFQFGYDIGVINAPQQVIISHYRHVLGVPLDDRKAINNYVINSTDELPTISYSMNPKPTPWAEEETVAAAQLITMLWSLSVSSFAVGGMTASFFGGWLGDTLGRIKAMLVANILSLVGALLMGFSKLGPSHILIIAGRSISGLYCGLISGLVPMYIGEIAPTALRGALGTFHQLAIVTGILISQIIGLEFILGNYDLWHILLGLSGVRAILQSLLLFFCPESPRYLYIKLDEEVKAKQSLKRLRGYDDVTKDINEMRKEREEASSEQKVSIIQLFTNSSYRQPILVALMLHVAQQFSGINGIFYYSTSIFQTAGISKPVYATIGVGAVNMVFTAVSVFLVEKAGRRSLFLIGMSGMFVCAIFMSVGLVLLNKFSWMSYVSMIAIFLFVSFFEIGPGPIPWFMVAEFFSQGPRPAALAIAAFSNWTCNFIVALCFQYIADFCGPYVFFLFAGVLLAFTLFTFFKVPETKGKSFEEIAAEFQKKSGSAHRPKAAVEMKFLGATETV
Briefly: Inhibition of GLUT2-mediated [14C]D-glucose uptake in human MCF7 cells by liquid scintillation counting.

Assay [2] addresses T1, Solute carrier family 2, facilitated glucose transporter member 2. Briefly: Inhibition of GLUT2-mediated [14C]D-glucose uptake in human MDA-MB-231 cells by liquid scintillation counting.
Assay [3] addresses T2, Solute carrier family 2, facilitated glucose transporter member 5 (Homo sapiens, UniProt P22732).
T2 sequence (P22732 whole entry): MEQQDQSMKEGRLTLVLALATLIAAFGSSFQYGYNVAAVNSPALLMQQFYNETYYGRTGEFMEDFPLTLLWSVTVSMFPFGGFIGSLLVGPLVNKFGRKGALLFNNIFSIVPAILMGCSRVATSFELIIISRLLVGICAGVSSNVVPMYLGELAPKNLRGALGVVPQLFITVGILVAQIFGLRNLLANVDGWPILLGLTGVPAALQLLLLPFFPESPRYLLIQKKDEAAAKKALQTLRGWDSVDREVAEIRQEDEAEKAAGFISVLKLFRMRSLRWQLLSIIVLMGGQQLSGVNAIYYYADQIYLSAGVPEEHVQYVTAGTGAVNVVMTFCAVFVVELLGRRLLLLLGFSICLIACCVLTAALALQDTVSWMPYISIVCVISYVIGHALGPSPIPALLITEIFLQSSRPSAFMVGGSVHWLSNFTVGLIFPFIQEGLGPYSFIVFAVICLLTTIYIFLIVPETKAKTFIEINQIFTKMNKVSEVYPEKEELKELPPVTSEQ
The assay can be described thus: Inhibition of GLUT5-mediated [14C]D-fructose uptake in human MCF7 cells by liquid scintillation counting.

Assay [4] has as its target T2, Solute carrier family 2, facilitated glucose transporter member 5. The assay can be described thus: Inhibition of GLUT5-mediated [14C]D-fructose uptake in human MDA-MB-231 cells by liquid scintillation counting.

Each structure is given as a SMILES string.

What is called Ki is a dissociation constant, usually derived from enzyme kinetics or from competition with a known ligand. Lower therefore signals higher affinity. For the compound `OCC1(O)O[C@H](CF)[C@@H](O)[C@@H]1O` (some centres undefined), the Ki in assay [1] was found to be 916 µM; in assay [2] it was 6210 µM; in assay [3], 154 µM; in assay [4], 330 µM.
